# Laboratory results taken from PubChem BioAssay AID449750 (Broad Institute, 2010).
# Values joined by “and” are separate entries in the source; they are usually repeats but may differ in a detail not shown here. Equal values may be shown once. Active and inactive are the calls of the source. No rule for the calls is given here.
# Assay: non-covalent RecA intein splicing inhibitors, dose response, biochemical, cell-free, fluorescence, secondary screen (AID 449750)
row,Structure (SMILES),AC50
1,Cc1onc(-c2ccccc2)c1-c1nc2ccccc2c(=O)o1,> 38 µM (inactive)
2,Cc1ccc(-n2nc(C)c3c2OC(N)=C(C#N)C3c2ccc(C)o2)cc1 (stereo not given),8.87 µM
3,Cc1ccc([N+](=O)[O-])cc1S(=O)(=O)N(C(=O)c1ccncc1)c1ccc2oc3c(c2c1)CCCC3,> 38 µM (inactive)
4,O=C(CCl)Nc1sccc1C(=O)c1ccccc1,14 µM
5,COc1ccc(Nc2ccc3c(c2)=NC2(CCCCC2)[N+]=3[O-])cc1,15 µM
6,CCCc1[nH]nc2c1C(c1ccc(OC(=O)N3CCOCC3)cc1)C(C#N)=C(N)O2 (stereo not given),> 38 µM (inactive)
7,COc1ccc(CC(=O)N/N=C(/C)CC(=O)N(C)c2ccccc2)cc1,> 38 µM (inactive)
8,COc1ccc(-c2c(=O)n(OC)c3ccccc3[n+]2[O-])cc1OC,> 38 µM (inactive)
9,Nc1ccc2nc(CCCCc3nc4ccccc4[nH]3)[nH]c2c1,> 38 µM (inactive)
10,Cc1ccc(-c2nc(CN3CCCC(C(=O)N4CCOCC4)C3)c(C)o2)cc1 (stereo not given),> 38 µM (inactive)
11,O=C(Oc1ccc2ccccc2c1)c1ccco1,> 38 µM (inactive)
12,S=C1NCCC12C(=S)Nc1ccccc12 (stereo not given),> 38 µM (inactive)
13,CCc1ccc(S(=O)(=O)/N=C2\C=C(NS(=O)(=O)c3ccccc3)C(=O)c3ccccc32)cc1,4.45 µM
14,O=C(O)COc1ccccc1C(Nc1cccnc1)c1cc(Cl)c2cccnc2c1O (stereo not given),6.01 µM
15,CCc1ccc(NC(=O)c2nc(S(=O)(=O)Cc3ccccc3)ncc2Cl)cc1,> 38 µM (inactive)
16,COc1cccc(-n2nnnc2S(C)(=O)=O)c1,> 38 µM (inactive)
17,COc1ccc(C(=O)/C=C/Sc2nc3ccccc3o2)cc1,38.6 µM
18,COc1cc(/C=C2/SC(=S)NC2=O)ccc1OS(=O)(=O)c1ccc(C)cc1,5.83 µM
19,COc1ccccc1C1C(C#N)=C(N)Oc2c1c(-c1ccccc1)nn2-c1ccccc1 (stereo not given),11.9 µM
20,Cc1cc(C)c(C(CC(=O)c2cccs2)C(C#N)C#N)c(C)c1 (stereo not given),38.8 µM
21,CC1CC(=O)c2c(cc3c(-c4c(O)cc(O)c5c(O)c6c(cc45)OC(C)CC6=O)c(O)cc(O)c3c2O)O1 (stereo not given),2.71 µM
22,O=C(C1=C(c2ccccc2)C(=O)c2ccccc2C1=O)c1ccccc1,3.45 µM
23,CCc1ccc(S(=O)(=O)/N=C2\C=C(Nc3cccc(C(=O)O)c3)C(=O)c3ccccc32)cc1,0.353 µM
24,COCc1[nH]nc2c1C1(CCSCC1)C(C#N)=C(N)O2,> 38 µM (inactive)
25,CCOC(=O)c1c(NC(=O)/C=C/C(=O)O)sc(C)c1-c1ccc(C)c(C)c1,10.7 µM
26,O=[N+]([O-])C(/C=C(/Cl)[N+](=O)[O-])=C(N1CCCCC1)N1CCCCC1,> 38 µM (inactive)
27,CCCCCCCCCCCCCCCCn1cc[n+](C)c1,7.12 µM and 7.27 µM

row,Structure (SMILES),AC50
1,CCOC(=O)c1c(CCl)nc2ccccc2c1-c1ccccc1,8.34 µM
2,COc1ccc(C(O)c2nccc3cc(OC)c(OC)cc23)cc1OC (stereo not given),> 38 µM (inactive)
3,O=C(Oc1ccc(-c2nnco2)cc1)c1ccco1,> 38 µM (inactive)
4,O=[N+]([O-])c1cc([N+](=O)[O-])c2oc(-c3ccccc3)c(Br)c2c1O,2.04 µM
5,CS/C(=C/[N+](=O)[O-])Nc1cccc2c1C(C)CC2(C)C (stereo not given),> 38 µM (inactive)
6,Cc1nn(-c2ccccc2)c(Cl)c1CN(C(=O)CCl)c1cccc2ccccc12,0.933 µM
7,N#CC(c1ccccc1)c1cnccn1 (stereo not given),> 38 µM (inactive)
8,O=[N+]([O-])c1cncc([N+](=O)[O-])c1Nc1cccc(O)c1,> 38 µM (inactive)
9,COC1=CC(=O)C(O)=C(CCCCCCC/C=C/CCCCCCCC2=C(O)C(=O)C=C(OC)C2=O)C1=O,4.64 µM
10,Fc1ccc(Nc2nc(NCc3ccco3)c3ccccc3n2)cc1,7.39 µM
11,CCOc1cc(C(c2c(C)[nH][nH]c2=O)c2c(C)[nH][nH]c2=O)ccc1OC(=O)c1cccc([N+](=O)[O-])c1,6.48 µM
12,CC1=CC2(O)OCCN(CCO)C2=CC1=O (stereo not given),13.5 µM
13,c1cncc(CNc2ncnc3sc4c(c23)CCCC4)c1,> 38 µM (inactive)
14,O=C(CCl)N(c1ccccc1)c1ccccc1,5.75 µM
15,COc1cc(C2C(C#N)=C(N)Oc3n[nH]c(C)c32)cc2c1OCO2 (stereo not given),8.43 µM
16,COCc1[nH]nc2c1C(c1ccsc1)C(C#N)=C(N)O2 (stereo not given),35.3 µM
17,Oc1[nH]c2ccccc2c1N=NC(=S)N1CCOCC1,> 38 µM (inactive)
18,Cc1[nH]n(-c2ccccc2)c(=O)c1C(C[N+](=O)[O-])c1ccc(Cl)cc1 (stereo not given),8.62 µM
19,COC1(OC)C(/C=C/c2ccc(C)cc2)C(C#N)(C#N)C1(OC)OC (stereo not given),> 38 µM (inactive)
20,COC(=O)[C@@H]1C[C@]2(OC(=O)c3ccccc3)C=CC(=O)C[C@@H]2N1C(=O)OCc1ccccc1,24.5 µM
21,CCOC1(OCC)C(c2ccc(Cl)cc2)C(C#N)(C#N)C1(OCC)OCC (stereo not given),> 38 µM (inactive)
22,O=C(C(=C1N(Cc2ccc(Cl)nc2)CCN1Cc1ccc(Cl)nc1)[N+](=O)[O-])C(Cl)Cl,> 38 µM (inactive)
23,Cc1ccccc1CS(=O)(=O)c1snnc1C,> 38 µM (inactive)
24,COC(=O)c1sc(-c2ccc(C(C)(C)C)cc2)cc1NC(=O)/C=C/C(=O)O,5.71 µM
25,CN1c2ccccc2C(C)(C)C12C=Nc1c(cc(N3CCOCC3)c3ccccc13)O2 (stereo not given),> 38 µM (inactive)
26,CN(C)C(=O)c1ccc2c(c1[N+](=O)[O-])C(=O)c1ccccc1C2=O,> 12 µM (inactive)
27,COc1cc(C(c2c(C)[nH][nH]c2=O)c2c(C)[nH][nH]c2=O)cc(OC)c1OC,11.8 µM

row,Structure (SMILES),AC50
1,Cc1cc(C(=O)CCl)c(C)n1CC1COc2ccccc2O1 (stereo not given),19.4 µM
2,O=C(c1ccco1)c1coc2c1cc(O)c1ccccc12,26.2 µM
3,CCOC(=O)c1[nH]c(=O)c2ccccc2c1O,2.65 µM
4,COc1cccc(/C=C2\SC(=S)N(CCCC(=O)N(CCO)c3ccccc3)C2=O)c1,> 38 µM (inactive)
5,Cc1ccc(C(=O)c2coc3cc([N+](=O)[O-])c(O)c([N+](=O)[O-])c23)cc1,> 38 µM (inactive)
6,O=C1N=NC2=C1c1c3ccccc3c(O)n1CC2,3.03 µM
7,C/C(=N/NC(=O)Cc1cc(=O)[nH][nH]1)c1ccc([N+](=O)[O-])cc1,21.5 µM
8,O=C1/C(=C\c2cccc(O)c2O)SC(=S)N1Cc1ccccc1,> 38 µM (inactive)
9,CN1C=C/C(=C\c2cc[n+](C)c3ccccc23)c2ccccc21,29.3 µM
10,Nc1cc(N)c(OCC(F)(F)F)cc1OCC(F)(F)F,9.65 µM
11,Cc1ccc2nc(-c3cccs3)oc(=O)c2c1,> 38 µM (inactive)
12,O=C(O)/C=C/C(=O)Nc1ccc(C2(c3ccc(NC(=O)/C=C/C(=O)O)cc3)c3ccccc3-c3ccccc32)cc1,4.61 µM
13,COc1cc(/C=N/NC(=O)CC2(C)OCCCO2)ccc1OCc1ccccc1,> 38 µM (inactive)
14,c1coc(-c2nnc(-c3ccco3)nn2)c1,12.8 µM
15,Cn1c(SCC(=O)NCC2CCCO2)ncc(C(=O)Nc2ccc(Cl)cc2)c1=O (stereo not given),> 38 µM (inactive)
16,Cc1ccccc1N1C(=O)C(Cl)=C(N2CCOCC2)C1=O,> 38 µM (inactive)
17,COc1ccc(-c2cc(=O)n(-c3ccc([N+](=O)[O-])cc3)[nH]2)cc1,3.4 µM
18,CN(C(=O)C(Cl)Cl)c1ccc(OC(=O)c2ccco2)cc1,> 38 µM (inactive)
19,CC1CCc2c(c3ccccc3n2C(=O)CCl)C1 (stereo not given),6.54 µM
20,COc1ccc(-c2[nH]nc3c2C(c2ccccc2OC(=O)N2CCOCC2)C(C#N)=C(N)O3)cc1 (stereo not given),38.2 µM
21,O=C(Nc1cccc(OC(=O)c2ccco2)c1)c1ccco1,> 38 µM (inactive)
22,CCCCNC1=CC(=O)C(=O)c2ccccc21,7.53 µM
23,Cc1nn(-c2ccccc2)c2c1C(c1ccc(F)cc1)C(C#N)=C(N)O2 (stereo not given),28.4 µM
24,CCCCN(C(=O)c1cccc2c(=O)c(C)c(-c3ccccc3)oc12)c1ccccc1,6.5 µM
25,Oc1ccc(N=Cc2ccc(O)c(O)c2)cc1,17.6 µM
26,Nc1cc2nn(-c3ccccc3)nc2cc1Cl,7.05 µM
27,C/C(CC(=O)Nc1cc(C)ccn1)=N\NC(=O)C(=O)NC(C)C,> 38 µM (inactive)

row,Structure (SMILES),AC50
1,Cc1ccc(OC(=O)c2ccc([N+](=O)[O-])cc2Cl)cn1,> 38 µM (inactive)
2,Cc1ccc(-n2nc(C)c3c2OC(N)=C(C#N)C3c2cccs2)cc1 (stereo not given),21.1 µM
3,CCS(=O)(=O)c1ncc(Cl)c(C(=O)Nc2ccc(C)cc2)n1,> 38 µM (inactive)
4,CC(=O)Nc1ccc(S(=O)(=O)NC2=C(N3CCN(c4ccc(F)cc4)CC3)C(=O)c3ccccc3C2=O)cc1,26.7 µM
5,CCn1c2ccccc2c2cc(C3C(C#N)=C(N)Oc4n[nH]c(COC)c43)ccc21 (stereo not given),8.48 µM
6,CC(C)Oc1cccc(C(=O)C2CCCN(C(=O)c3csnn3)C2)c1 (stereo not given),> 38 µM (inactive)
7,CCOC(=O)Cc1[nH]nc2c1C(c1ccsc1)C(C#N)=C(N)O2 (stereo not given),> 38 µM (inactive)
8,CSCCC1C(C#N)=C(N)Oc2n[nH]c(-c3cccs3)c21 (stereo not given),11.4 µM
9,Cc1ccc2nc(N/N=C\c3ccc([N+](=O)[O-])o3)nc(-c3ccccc3)c2c1,> 38 µM (inactive)
10,CCOc1ccc(CN(C)C(=O)CCl)cc1,11.1 µM
11,CN(CCC#N)C(=O)Cn1nc(Cc2ccncc2)c2ccccc2c1=O,> 38 µM (inactive)
12,CN(C(=O)c1cccc(COc2ccc(Cl)cc2Cl)c1)c1ccccc1,> 38 µM (inactive)
13,CC(C)(C)OC(=O)N1CC=C2C(C#N)=C(N)C(C#N)(C#N)C(c3cccs3)C2C1 (stereo not given),> 12 µM (inactive)
14,CCc1[nH]nc2c1C(c1cccc(OC(=O)N3CCOCC3)c1)C(C#N)=C(N)O2 (stereo not given),> 38 µM (inactive)
15,Cn1c(SCC(=O)NCc2ccc(F)cc2)nc2ccccc21,> 38 µM (inactive)
16,Cc1ccccc1-c1cc2c(nn1)-c1ccccc1C2=O,8.26 µM
17,Cc1ccc(Sc2c(C)[nH]n(C(C)(C)C)c2=O)cc1,> 38 µM (inactive)
18,O=C1C2=C(NC(=S)NC2c2ccc(Cl)cc2)NC(c2ccc(Cl)cc2)N1c1ccc(Cl)cc1 (stereo not given),4.62 µM
19,O=[N+]([O-])c1cccc(C=Nc2cccc3ccccc23)c1O,> 38 µM (inactive)
20,CC(C)(C)OC(=O)N/N=C\c1ccc(OC(=O)c2ccco2)cc1,> 38 µM (inactive)
21,Cc1ccc(N2C(=O)C(Cl)=C(N3CCOCC3)C2=O)cc1Cl,> 38 µM (inactive)
22,Nc1ccc(Nc2ccccc2N)cc1,16 µM
23,C/C(CC(=O)Nc1ccc(F)cc1)=N\NC(=O)COc1ccccc1,> 38 µM (inactive)
24,Cc1onc(-c2c(Cl)cccc2Cl)c1C(=O)N1C(C)CCCC1C (stereo not given),> 38 µM (inactive)
